Source: ChEMBL document CHEMBL1201861, “Genomics of Drug Sensitity in Cancer screening data, Wellcome Trust Sanger Institute”

Key:
[1] = tested on: TE-15; assay: cells; format: functional, cell-based, Homo sapiens; conditions: Homo sapiens, TE-15;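 also: cell viability readout of growth inhibition in TE-15 cells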
Description: SANGER: Inhibition of human TE-15 cell growth in a cell viability assay.

[2] = tested on: CPC-N; assay: cells; format: functional, cell-based, Homo sapiens; conditions: Homo sapiens, CPC-N;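 also: growth inhibition of CPC-N cells, with a cell viability assay as the readout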
Description: SANGER: Inhibition of human CPC-N cell growth in a cell viability assay.

[3] = tested on: EVSA-T; assay: cells; format: functional, cell-based, Homo sapiens; conditions: Homo sapiens, EVSA-T;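 also: growth inhibition of EVSA-T cells, read out with a cell viability assay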
Description: SANGER: Inhibition of human EVSA-T cell growth in a cell viability assay.

[4] = tested on: JIYOYE; assay: cells; format: functional, cell-based, Homo sapiens; conditions: Homo sapiens, JIYOYE
Description: SANGER: Inhibition of human JiyoyeP-2003 cell growth in a cell viability assay.

[5] = tested on: NCI-H748; assay: cells; format: functional, cell-based, Homo sapiens; conditions: Homo sapiens, NCI-H748;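 also: growth inhibition of NCI-H748 cells, measured by a cell viability assay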
Description: SANGER: Inhibition of human NCI-H748 cell growth in a cell viability assay.

[6] = tested on: RL; assay: cells; format: functional, cell-based, Homo sapiens; conditions: Homo sapiens, RL
Description: SANGER: Inhibition of human RL cell growth in a cell viability assay.

[7] = tested on: NCI-H1963; assay: cells; format: functional, cell-based, Homo sapiens; conditions: Homo sapiens, NCI-H1963;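 also: cell growth inhibition of the human line, determined with a cell viability assay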
Description: SANGER: Inhibition of human NCI-H1963 cell growth in a cell viability assay.

[8] = tested on: EW-24; assay: cells; format: functional, cell-based, Homo sapiens; conditions: Homo sapiens, EW-24;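 also: human EW-24 cancer cell line, growth inhibition read out via a cell viability assay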
Description: SANGER: Inhibition of human EW-24 cell growth in a cell viability assay.

[9] = tested on: ST486; assay: SANGER: Inhibition of human ST486 cell growth in a cell viability assay.; format: functional, cell-based; conditions: Homo sapiens, ST486
[10] = tested on: D-392MG; assay: cells; format: functional, cell-based; conditions: Homo sapiens

Compound: C=CC(=O)N1CCCC(Nc2nc(Nc3ccc(N(C)C(=O)CC)cc3)nc3[nH]cnc23)C1 (stereo not given)
- IC50 [1]: 1.85 µM
- IC50 [2]: > 10.2 µM
- IC50 [3]: > 10.2 µM
- IC50 [4]: > 10.2 µM
- IC50 [5]: > 10.2 µM
- IC50 [6]: > 10.2 µM
- IC50 [7]: > 10.2 µM
- IC50 [8]: 4.59 µM
- IC50 [9]: > 10.2 µM

Compound: COc1ccc(N(C(=O)Oc2c(C)cccc2C)c2ccnc(Nc3ccc(N4CCN(C)CC4)cc3)n2)c(OC)c1
- IC50 [1]: 0.243 µM
- IC50 [2]: > 5.12 µM
- IC50 [3]: > 5.12 µM
- IC50 [4]: > 5.12 µM
- IC50 [5]: > 5.12 µM
- IC50 [6]: > 5.12 µM
- IC50 [7]: > 5.12 µM
- IC50 [8]: > 5.12 µM
- IC50 [9]: > 5.12 µM

Compound: Cc1cc(N2CCOCC2)cc2[nH]c(-c3c(NC[C@@H](O)c4cccc(Cl)c4)cc[nH]c3=O)nc12
- IC50 [1]: 0.813 µM
- IC50 [2]: 3.59 µM
- IC50 [3]: > 5.12 µM
- IC50 [4]: 5 µM
- IC50 [5]: > 5.12 µM
- IC50 [6]: > 5.12 µM
- IC50 [7]: > 5.12 µM
- IC50 [8]: > 5.12 µM
- IC50 [9]: > 5.12 µM

Compound: NC(=O)c1cccc(-c2cc(Nc3ccc(OC(F)(F)F)cc3)ncn2)c1
- IC50 [1]: > 1.28 µM
- IC50 [2]: > 1.28 µM
- IC50 [3]: > 1.28 µM
- IC50 [4]: > 1.28 µM
- IC50 [5]: > 1.28 µM
- IC50 [6]: > 1.28 µM
- IC50 [7]: > 1.28 µM
- IC50 [8]: > 1.28 µM
- IC50 [9]: > 1.28 µM

Compound: CC(C)C[C@H](NC(=O)[C@H](Cc1ccccc1)NC(=O)c1cnccn1)B(O)O [BORTEZOMIB]
- IC50 [1]: 0.00343 µM
- IC50 [2]: > 0.02 µM
- IC50 [3]: 0.0036 µM
- IC50 [10]: 0.0011 µM
- IC50 [4]: 0.005 µM
- IC50 [5]: 0.00239 µM
- IC50 [6]: > 0.02 µM
- IC50 [7]: > 0.02 µM
- IC50 [8]: 0.00208 µM
- IC50 [9]: > 0.02 µM

Compound: C[C@@H](Oc1cc(-c2cnn(C3CCNCC3)c2)cnc1N)c1c(Cl)ccc(F)c1Cl [CRIZOTINIB]
- IC50 [1]: > 2 µM
- IC50 [2]: > 2 µM
- IC50 [3]: > 2 µM
- IC50 [4]: > 2 µM
- IC50 [5]: > 2 µM
- IC50 [6]: > 2 µM
- IC50 [7]: > 2 µM
- IC50 [8]: > 2 µM
- IC50 [9]: > 2 µM
